According to paper PMC5218480 (PLoS ONE, 2017):

Test system: MV-4-11 cells
Test: Gene expression microarray analysis (Affymetrix PrimeView) and GSEA
Assay type: cell-based, human
Design: RFU PODN (11730768_x_at) / Fold change /veh PODN (11730768_x_at) / RFU LINC00158 (11744669_a_at) / Fold change /veh LINC00158 (11744669_a_at) / RFU DUSP10 (11751237_a_at) / Fold change /veh DUSP10 (11751237_a_at) / RFU ID3 (11757404_x_at) / Fold change /veh ID3 (11757404_x_at) / RFU PLEKHG5 (11737974_s_at) / Fold change /veh PLEKHG5 (11737974_s_at) / RFU LRRC4B (11730491_at) / Fold change /veh LRRC4B (11730491_at) / RFU GIMAP4 (11747438_a_at) / Fold change /veh GIMAP4 (11747438_a_at) / RFU KRT8 (11758183_x_at) / Fold change /veh KRT8 (11758183_x_at) / RFU CNN1 (11734310_a_at) / Fold change /veh CNN1 (11734310_a_at) / RFU VPS37D (11726825_at) / Fold change /veh VPS37D (11726825_at) / RFU C10orf10 (11716522_x_at) / Fold change /veh C10orf10 (11716522_x_at) / RFU KIR2DL2 /// KIR2DL4 /// KIR2DL5A /// KIR2DL5B /// KIR2DS1 /// KIR2DS2 /// KIR2DS3 /// KIR2DS4 /// KIR3DL3 /// KIR3DL3 /// KIR3DS1 (11738374_at) / Fold change /veh KIR2DL2 /// KIR2DL4 /// KIR2DL5A /// KIR2DL5B /// KIR2DS1 /// KIR2DS2 /// KIR2DS3 /// KIR2DS4 /// KIR3DL3 /// KIR3DL3 /// KIR3DS1 (11738374_at) / RFU C1QL1 (11718748_at) / Fold change /veh C1QL1 (11718748_at) / RFU TMPRSS4 (11747572_a_at) / Fold change /veh TMPRSS4 (11747572_a_at) / RFU HAMP (11756126_x_at) / Fold change /veh HAMP (11756126_x_at) / RFU RNFT2 (11725882_a_at) / Fold change /veh RNFT2 (11725882_a_at) / RFU NR4A2 (11747474_a_at) / Fold change /veh NR4A2 (11747474_a_at) / RFU ABCC12 (11746883_a_at) / Fold change /veh ABCC12 (11746883_a_at) / RFU TMEM136 (11760407_x_at) / Fold change /veh TMEM136 (11760407_x_at) / RFU CLDN22 /// WWC2 (11732394_at) / Fold change /veh CLDN22 /// WWC2 (11732394_at) / RFU HLA-DPB1 (11760878_x_at) / Fold change /veh HLA-DPB1 (11760878_x_at) / RFU SPINT1 (11716480_a_at) / Fold change /veh SPINT1 (11716480_a_at) / RFU GAP43 (11754022_s_at) / Fold change /veh GAP43 (11754022_s_at) / RFU A4GNT (11735810_at) / Fold change /veh A4GNT (11735810_at) / RFU PRB3 (11715151_x_at) / Fold change /veh PRB3 (11715151_x_at) / RFU TUBB4B (11761932_at) / Fold change /veh TUBB4B (11761932_at) / RFU CAPN14 (11732068_a_at) / Fold change /veh CAPN14 (11732068_a_at) / RFU TMCC2 (11721928_a_at) / Fold change /veh TMCC2 (11721928_a_at) / RFU IRGQ (11745062_a_at) / Fold change /veh IRGQ (11745062_a_at) / RFU FAM174B (11720279_a_at) / Fold change /veh FAM174B (11720279_a_at) / RFU TMPRSS4 (11748680_a_at) / Fold change /veh TMPRSS4 (11748680_a_at) / RFU FAM212B (11763350_a_at) / Fold change /veh FAM212B (11763350_a_at) / RFU PLEKHG5 (11743358_a_at) / Fold change /veh PLEKHG5 (11743358_a_at) / RFU ZSCAN30 (11745921_a_at) / Fold change /veh ZSCAN30 (11745921_a_at) / RFU CMKLR1 (11741424_a_at) / Fold change /veh CMKLR1 (11741424_a_at) / RFU LOC101060620 /// MAPK8IP1 (11723275_at) / Fold change /veh LOC101060620 /// MAPK8IP1 (11723275_at) / RFU SPTSSB (11747773_x_at) / Fold change /veh SPTSSB (11747773_x_at) / RFU PRSS12 (11739890_at) / Fold change /veh PRSS12 (11739890_at) / RFU BIN1 (11741810_x_at) / Fold change /veh BIN1 (11741810_x_at) / RFU WNT11 (11732464_a_at) / Fold change /veh WNT11 (11732464_a_at) / RFU C10orf10 (11716521_a_at) / Fold change /veh C10orf10 (11716521_a_at) / RFU C5orf56 (11738089_at) / Fold change /veh C5orf56 (11738089_at) / RFU CYB561 (11721691_x_at) / Fold change /veh CYB561 (11721691_x_at) / RFU ANKRD19P (11752326_a_at) / Fold change /veh ANKRD19P (11752326_a_at) / RFU OR2T12 /// OR2T33 /// OR2T8 (11738714_s_at) / Fold change /veh OR2T12 /// OR2T33 /// OR2T8 (11738714_s_at) / RFU VCAN (11748164_a_at) / Fold change /veh VCAN (11748164_a_at) / RFU JSRP1 (11732532_at) / Fold change /veh JSRP1 (11732532_at) / RFU KRTAP10-11 (11738290_x_at) / Fold change /veh KRTAP10-11 (11738290_x_at) / RFU MYO3A (11730013_a_at) / Fold change /veh MYO3A (11730013_a_at) / RFU EBF3 (11725865_a_at) / Fold change /veh EBF3 (11725865_a_at) / RFU CAMK2N1 (11719241_x_at) / Fold change /veh CAMK2N1 (11719241_x_at) / RFU C5orf56 (11738088_a_at) / Fold change /veh C5orf56 (11738088_a_at) / RFU OLFML3 (11715873_a_at) / Fold change /veh OLFML3 (11715873_a_at) / RFU LOC100653217 /// NTM (11731650_a_at) / Fold change /veh LOC100653217 /// NTM (11731650_a_at) / RFU MAPK11 (11762145_a_at) / Fold change /veh MAPK11 (11762145_a_at) / RFU FIZ1 (11724087_x_at) / Fold change /veh FIZ1 (11724087_x_at) / RFU OASL (11726364_x_at) / Fold change /veh OASL (11726364_x_at) / RFU SOX15 (11748057_x_at) / Fold change /veh SOX15 (11748057_x_at) / RFU CD79A (11719716_a_at) / Fold change /veh CD79A (11719716_a_at) / RFU HIST1H1D (11736915_at) / Fold change /veh HIST1H1D (11736915_at) / RFU CASKIN2 (11723855_a_at) / Fold change /veh CASKIN2 (11723855_a_at) / RFU LOC730098 (11760151_x_at) / Fold change /veh LOC730098 (11760151_x_at) / RFU OR4N2 (11742367_at) / Fold change /veh OR4N2 (11742367_at) / RFU PRRT2 (11749266_a_at) / Fold change /veh PRRT2 (11749266_a_at) / RFU SNX32 (11753110_a_at) / Fold change /veh SNX32 (11753110_a_at) / RFU CDHR5 (11726645_a_at) / Fold change /veh CDHR5 (11726645_a_at) / RFU RCAN1 (11760418_a_at) / Fold change /veh RCAN1 (11760418_a_at) / RFU FAM167A (11723789_a_at) / Fold change /veh FAM167A (11723789_a_at) / RFU FAM26E (11764081_at) / Fold change /veh FAM26E (11764081_at) / RFU ISYNA1 (11749810_s_at) / Fold change /veh ISYNA1 (11749810_s_at) / RFU ACY1 (11761880_at) / Fold change /veh ACY1 (11761880_at) / RFU 11764098_at / Fold change /veh 11764098_at / RFU SAMD14 (11745864_x_at) / Fold change /veh SAMD14 (11745864_x_at) / RFU NPB (11741838_a_at) / Fold change /veh NPB (11741838_a_at) / RFU TMPRSS6 (11731388_a_at) / Fold change /veh TMPRSS6 (11731388_a_at) / RFU KRTAP10-2 (11738614_at) / Fold change /veh KRTAP10-2 (11738614_at) / RFU ARHGAP8 /// PRR5-ARHGAP8 (11727945_x_at) / Fold change /veh ARHGAP8 /// PRR5-ARHGAP8 (11727945_x_at) / RFU KRTAP5-7 /// NADSYN1 (11734609_at) / Fold change /veh KRTAP5-7 /// NADSYN1 (11734609_at) / RFU RASL12 (11751679_a_at) / Fold change /veh RASL12 (11751679_a_at) / RFU CDKN2B (11736163_a_at) / Fold change /veh CDKN2B (11736163_a_at) / RFU PRF1 (11729649_at) / Fold change /veh PRF1 (11729649_at) / RFU, ZNF638 /// ZNF638-IT1 / Fold change vs veh, ZNF638 /// ZNF638-IT1 / RFU, PANK3 / Fold change vs veh, PANK3 / RFU, SH3YL1 / Fold change vs veh, SH3YL1 / RFU, ZEB2 / Fold change vs veh, ZEB2 / RFU, NRIP1 / Fold change vs veh, NRIP1 / RFU, PTTG1IP / Fold change vs veh, PTTG1IP / RFU, CAPN2 / Fold change vs veh, CAPN2 / RFU, MED14 / Fold change vs veh, MED14 / RFU, SNORA58 / Fold change vs veh, SNORA58 / RFU, C1orf63 / Fold change vs veh, C1orf63 / RFU, LRRFIP1 / Fold change vs veh, LRRFIP1 / RFU, NDUFAF7 / Fold change vs veh, NDUFAF7 / RFU, SLC12A2 / Fold change vs veh, SLC12A2 / RFU, IBTK / Fold change vs veh, IBTK / RFU, ESF1 / Fold change vs veh, ESF1 / Fold change vs veh, TMEM50B / RFU, TAOK1 / Fold change vs veh, TAOK1 / RFU, ACBD3 / Fold change vs veh, ACBD3 / RFU, TMA16 / Fold change vs veh, TMA16 / RFU, RWDD3 / Fold change vs veh, RWDD3 / RFU, BCAT1 / Fold change vs veh, BCAT1 / RFU, EDEM3 / Fold change vs veh, EDEM3 / RFU, TMEM33 / Fold change vs veh, TMEM33 / RFU, WDR75 / Fold change vs veh, WDR75 / RFU, AHCTF1 / Fold change vs veh, AHCTF1 / RFU, TFRC / Fold change vs veh, TFRC / RFU, ZDHHC17 / Fold change vs veh, ZDHHC17 / RFU, NOM1 / Fold change vs veh, NOM1 / RFU, ARL8B / Fold change vs veh, ARL8B / RFU, ZBTB11 / Fold change vs veh, ZBTB11 / RFU, TAMM41 / Fold change vs veh, TAMM41 / RFU, KIAA1704 /// LOC100996395 / Fold change vs veh, KIAA1704 /// LOC100996395 / RFU, ING1 / Fold change vs veh, ING1 / RFU, TRMT61B / Fold change vs veh, TRMT61B / RFU, FUBP3 / Fold change vs veh, FUBP3 / RFU, TP53 / Fold change vs veh, TP53 / RFU, TNKS2 / Fold change vs veh, TNKS2 / RFU, ZFP14 / Fold change vs veh, ZFP14 / RFU, ACTR2 / Fold change vs veh, ACTR2 / RFU, PPP3R1 / Fold change vs veh, PPP3R1 / RFU, PIK3R1 / Fold change vs veh, PIK3R1 / RFU, HNRNPA1 / Fold change vs veh, HNRNPA1 / RFU, RNF170 / Fold change vs veh, RNF170 / RFU, ZNF28 / Fold change vs veh, ZNF28 / RFU, RNGTT / Fold change vs veh, RNGTT / RFU, OGT / Fold change vs veh, OGT / RFU, BRD1 / Fold change vs veh, BRD1 / RFU, MARS / Fold change vs veh, MARS / RFU, ZNF655 / Fold change vs veh, ZNF655 / RFU, FAHD1 / Fold change vs veh, FAHD1 / RFU, BDP1 / Fold change vs veh, BDP1 / RFU, LRRCC1 / Fold change vs veh, LRRCC1 / RFU, ARID1A / Fold change vs veh, ARID1A / RFU, ZNF146 / Fold change vs veh, ZNF146 / RFU, ZNF330 / Fold change vs veh, ZNF330 / RFU, GPN3 / Fold change vs veh, GPN3 / RFU, C9orf123 / Fold change vs veh, C9orf123 / RFU, N4BP2L2 / Fold change vs veh, N4BP2L2 / RFU, ARFIP1 / Fold change vs veh, ARFIP1 / RFU, FAM179B / Fold change vs veh, FAM179B / RFU, BCL10 / Fold change vs veh, BCL10 / RFU, UHRF1BP1L / Fold change vs veh, UHRF1BP1L / RFU, BET1 / Fold change vs veh, BET1 / RFU, CNOT2 / Fold change vs veh, CNOT2 / RFU, ZNF268 / Fold change vs veh, ZNF268 / Fold change vs veh, ZNF507 / RFU, DGCR2 / Fold change vs veh, DGCR2 / RFU, WDSUB1 / Fold change vs veh, WDSUB1 / Fold change vs veh, HSP90B1 /// MIR3652 / RFU, ADSS / Fold change vs veh, ADSS / RFU, GK / Fold change vs veh, GK / RFU, ZNF148 / Fold change vs veh, ZNF148 / RFU, TAF9 / Fold change vs veh, TAF9 / RFU, SLC1A5 / Fold change vs veh, SLC1A5 / RFU, SLMO2 / Fold change vs veh, SLMO2 / RFU, ABCC4 / Fold change vs veh, ABCC4 / RFU, LOC101060439 /// RAP1B / Fold change vs veh, LOC101060439 /// RAP1B / RFU, RFX7 / Fold change vs veh, RFX7 / RFU, GTPBP10 / Fold change vs veh, GTPBP10 / RFU, CNEP1R1 / Fold change vs veh, CNEP1R1 / RFU, BIVM-ERCC5 /// ERCC5 / Fold change vs veh, BIVM-ERCC5 /// ERCC5 / RFU, ILF3 / Fold change vs veh, ILF3 / RFU 11762660_at / Fold change /veh 11762660_at / RFU VCAN (11757783_s_at) / Fold change /veh VCAN (11757783_s_at) / RFU DDX43 (11728927_at) / Fold change /veh DDX43 (11728927_at) / RFU KRT8 (11758188_x_at) / Fold change /veh KRT8 (11758188_x_at) / RFU NKD1 (11759106_at) / Fold change /veh NKD1 (11759106_at) / RFU SRD5A1 (11742802_a_at) / Fold change /veh SRD5A1 (11742802_a_at) / RFU TPSAB1 /// TPSB2 (11721975_s_at) / Fold change /veh TPSAB1 /// TPSB2 (11721975_s_at) / RFU GSTM3 (11746129_a_at) / Fold change /veh GSTM3 (11746129_a_at) / RFU IL23R (11737362_x_at) / Fold change /veh IL23R (11737362_x_at) / RFU TMEM51 (11727254_a_at) / Fold change /veh TMEM51 (11727254_a_at) / RFU PIWIL2 (11732686_x_at) / Fold change /veh PIWIL2 (11732686_x_at) / RFU ORM1 (11744905_x_at) / Fold change /veh ORM1 (11744905_x_at) / RFU CCDC152 (11743942_at) / Fold change /veh CCDC152 (11743942_at) / RFU ECM1 (11717891_a_at) / Fold change /veh ECM1 (11717891_a_at) / RFU IL23R (11748794_a_at) / Fold change /veh IL23R (11748794_a_at) / RFU TNFAIP8L3 (11732012_x_at) / Fold change /veh TNFAIP8L3 (11732012_x_at) / RFU MBOAT4 (11741988_at) / Fold change /veh MBOAT4 (11741988_at) / RFU 11764193_at / Fold change /veh 11764193_at / RFU TMEM53 (11763286_at) / Fold change /veh TMEM53 (11763286_at) / RFU MAGEB2 (11727129_at) / Fold change /veh MAGEB2 (11727129_at) / RFU TMEM200A (11744735_a_at) / Fold change /veh TMEM200A (11744735_a_at) / RFU CCDC152 (11751479_a_at) / Fold change /veh CCDC152 (11751479_a_at) / RFU FAM211A (11726209_a_at) / Fold change /veh FAM211A (11726209_a_at) / RFU RGS16 (11746705_a_at) / Fold change /veh RGS16 (11746705_a_at) / RFU VCAN (11755009_s_at) / Fold change /veh VCAN (11755009_s_at) / RFU RHOB (11743442_s_at) / Fold change /veh RHOB (11743442_s_at) / RFU RGS16 (11720943_a_at) / Fold change /veh RGS16 (11720943_a_at) / RFU RGS16 (11720944_at) / Fold change /veh RGS16 (11720944_at) / RFU, VPS4B / Fold change vs veh, VPS4B / RFU, CREB1 / Fold change vs veh, CREB1 / RFU, DNAJC13 / Fold change vs veh, DNAJC13 / RFU, GNAQ / Fold change vs veh, GNAQ / RFU, CDK5R1 / Fold change vs veh, CDK5R1 / RFU, ZRANB3 / Fold change vs veh, ZRANB3 / RFU, CUL4A / Fold change vs veh, CUL4A / RFU, CCNY / Fold change vs veh, CCNY / RFU, UFL1 / Fold change vs veh, UFL1 / RFU, COG3 / Fold change vs veh, COG3 / RFU, DIAPH2 / Fold change vs veh, DIAPH2 / RFU, SKA2 / Fold change vs veh, SKA2 / RFU, AFF3 / Fold change vs veh, AFF3 / RFU, LMF1 / Fold change vs veh, LMF1 / RFU, IPO11 / Fold change vs veh, IPO11 / RFU, DFFB / Fold change vs veh, DFFB / RFU, FOXP1 / Fold change vs veh, FOXP1 / RFU, CARD8 / Fold change vs veh, CARD8 / RFU, STRN3 / Fold change vs veh, STRN3 / RFU, ADK / Fold change vs veh, ADK / RFU, RASSF2 / Fold change vs veh, RASSF2 / RFU, WIPF1 / Fold change vs veh, WIPF1 / RFU, LARP1B / Fold change vs veh, LARP1B / RFU, RASA1 / Fold change vs veh, RASA1 / RFU, RB1 / Fold change vs veh, RB1 / RFU, PPFIA1 / Fold change vs veh, PPFIA1 / RFU, MAT2A / Fold change vs veh, MAT2A / RFU, CCT5 / Fold change vs veh, CCT5 / RFU, WDR92 / Fold change vs veh, WDR92 / RFU, CUX1 / Fold change vs veh, CUX1 / RFU, TTC7A / Fold change vs veh, TTC7A / RFU, TMEM135 / Fold change vs veh, TMEM135 / RFU, DEPTOR / Fold change vs veh, DEPTOR / RFU, CPM / Fold change vs veh, CPM / RFU, DNAJB6 / Fold change vs veh, DNAJB6 / RFU, CACNA2D3 / Fold change vs veh, CACNA2D3 / RFU, DTX4 / Fold change vs veh, DTX4 / RFU, TFCP2 / Fold change vs veh, TFCP2 / RFU, GMCL1 /// GMCL1P1 / Fold change vs veh, GMCL1 /// GMCL1P1 / RFU, AEBP2 / Fold change vs veh, AEBP2 / RFU, SNHG1 /// SNORD22 /// SNORD25 /// SNORD26 /// SNORD27 /// SNORD28 /// SNORD29 /// SNORD31 / Fold change vs veh, SNHG1 /// SNORD22 /// SNORD25 /// SNORD26 /// SNORD27 /// SNORD28 /// SNORD29 /// SNORD31 / Fold change (Aza/veh), C12orf56 (ProbeSet 11735607_a_at) / Fold change (ACY-1035/veh), C12orf56 (ProbeSet 11735607_a_at) / Fold change (Aza/veh), FGFR1OP (ProbeSet 11751329_s_at) / Fold change (ACY-1035/veh), FGFR1OP (ProbeSet 11751329_s_at) / Fold change (Aza/veh), VPS36 (ProbeSet 11739960_a_at) / Fold change (ACY-1035/veh), VPS36 (ProbeSet 11739960_a_at) / RFU SYPL1 (11715823_x_at) / Fold change /veh SYPL1 (11715823_x_at) / RFU IGFBP7 (11715501_s_at) / Fold change /veh IGFBP7 (11715501_s_at) / RFU REEP3 (11722064_at) / Fold change /veh REEP3 (11722064_at) / RFU IGLL1 (11728026_x_at) / Fold change /veh IGLL1 (11728026_x_at): dose or concentration left out as unconfirmed
Conditions: ProbeSet 11733831_s_at; LIST D

For `Nc1ncn([C@@H]2O[C@H](CO)[C@@H](O)[C@H]2O)c(=O)n1` [azacitidine], the “Fold change vs veh, GMCL1 /// GMCL1P1” value was 0.81.
